Our source for the TGI and GI50 values is PubChem BioAssay (NCI).

Several values for one entry are separate records, joined by “and”; a condition that tells them apart may be missing. Identical values can stand only once.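 Cultured in 96-well plates, cells were exposed to test compound for 48 hours across five concentrations. At the GI50, growth is halved. TGI denotes the concentration required for complete inhibition of growth.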 A value given as a limit tells only on which side of the number the result lay.

Among the test systems are M19-MEL melanoma; KM20L2 colon; LXFL 529 NSCLC; NCI/ADR-RES ovarian; MCF7 breast; XF 498 CNS; SNB-78 CNS; MDA-N.
Holding throughout (assay): inhibition of tumour cell growth, NCI panel, 48 h

On to `COc1ccc(NC(=O)CC/C(CC(=O)C(C)(C)C)=N\NC(=O)C(N)=O)cc1`, for which the TGI with M19-MEL melanoma, in the experiment on KM20L2 colon and with LXFL 529 NSCLC was > 100 µM each time.

In the case of `O=C(/C=C/C=C/c1c(C2CC2)nc2ccccc2c1-c1ccc(F)cc1)c1cccs1`, the GI50 in the experiment with NCI/ADR-RES ovarian was 2.62 µM; with MCF7 breast it was 0.467 µM. The TGI in the experiment on NCI/ADR-RES ovarian and in the experiment on MCF7 breast was > 100 µM throughout.

As for `Fc1ccc(-c2ncn(C3CCNCC3)c2-c2ccnc(Oc3ccc(F)c(F)c3)n2)cc1`, in the experiment on NCI/ADR-RES ovarian, the GI50 was 8.83 µM and the TGI was > 25 µM. In the experiment with MCF7 breast, the GI50 is 4.28 µM and the TGI turned out to be 8.27 µM.

Regarding `Cc1nc([C@H]2CC[C@H]3[C@@H]4CCC5=CC(=O)CC[C@]5(C)[C@H]4CC[C@]23C)cs1`, in the experiment on NCI/ADR-RES ovarian, the GI50 is 3.63 µM and the TGI was > 100 µM. Also, in the experiment on MCF7 breast, the GI50 was 2.78 µM and the TGI is > 100 µM.

In the case of `O=C(O)c1ccc(S(=O)(=O)Nc2ccc3oc4c(c3c2)C(=O)CCC4)cc1`, in the experiment on NCI/ADR-RES ovarian, the GI50 is > 100 µM and the TGI is > 100 µM. In the experiment on MCF7 breast, the GI50 was > 100 µM and the TGI is > 100 µM.

In the case of `CC(=O)N1c2ccccc2NC2=C(C(=O)N(Cc3ccccc3)C2(C)C)C1c1ccco1` (stereo not drawn), in the experiment with NCI/ADR-RES ovarian, the GI50 is > 21.6 µM and the TGI was > 25 µM. In the experiment on MCF7 breast, the GI50 is 0.368 µM and the TGI is > 25 µM.

In the case of `CN(C)C/C=C/C(=O)Nc1cc2c(Nc3ccc(F)c(Cl)c3F)ncnc2cc1OCCOC(F)F`, in the experiment on NCI/ADR-RES ovarian, the GI50 was 0.499 µM and the TGI was 3.74 µM. For the same molecule, in the experiment on MCF7 breast, the GI50 was 1.24 µM and the TGI came out at 10.1 µM.

With `COc1ccc(C[C@@H]2NC[C@@H](O)[C@@H]2OC(C)=O)cc1`, the TGI with M19-MEL melanoma was > 100 µM; with KM20L2 colon, > 100 µM; with LXFL 529 NSCLC, 24.1 µM.

With `O=c1c(O)cccc2cc(O)c(O)c(O)c12`, in the experiment with NCI/ADR-RES ovarian, the GI50 is 34.5 µM and the TGI is > 100 µM. Besides, in the experiment with MCF7 breast, the GI50 was 6.46 µM and the TGI was 23.9 µM.

With `CN(C)CCNC(=O)c1cccc2c(Nc3ccc(S(N)(=O)=O)cc3)c3ccccc3nc12`, the values for the TGI in the experiment on XF 498 CNS, in the experiment on KM20L2 colon and in the experiment on LXFL 529 NSCLC were 1.81 µM, 13.3 µM and 2.23 µM, respectively.

For the molecule `Clc1ccc(C2=Nn3c(nnc3-c3cc(Cl)cc(Cl)c3Cl)SC2)cc1`, in the experiment on NCI/ADR-RES ovarian, the GI50 is 16.6 µM and the TGI was > 100 µM. In the experiment with MCF7 breast, the GI50 is 11.8 µM and the TGI worked out at 92.7 µM.

`Cc1nccc2c3ccc(OCc4cn(-c5ccc(Cl)cc5)nn4)cc3n(CCCc3ccccc3)c12`: the results for the GI50 with NCI/ADR-RES ovarian and with MCF7 breast were 0.644 µM and 1.49 µM, respectively. The TGI is 1.72 µM with NCI/ADR-RES ovarian and > 33.3 µM in the experiment with MCF7 breast.

On to `Cc1cc(Nc2c3ccccc3nc3ccccc23)ccc1NS(C)(=O)=O`, for which, in the experiment with NCI/ADR-RES ovarian, the GI50 is 5.63 µM and the TGI was determined as 52.5 µM. Moreover, in the experiment with MCF7 breast, the GI50 was 3.99 µM and the TGI came out at 18.4 µM.

For the molecule `CN1CCN(c2cc(C(=O)Nc3cc4cc(-c5cnn(C)c5)ccc4cn3)ccn2)CC1`, in the experiment on NCI/ADR-RES ovarian, the GI50 is 0.246 µM and the TGI stood at 76.4 µM. Further, in the experiment on MCF7 breast, the GI50 was 0.0911 µM and the TGI is 0.399 µM.

On to `COc1ccc(-c2nc(C(=O)c3ccccc3)n(CC(=O)c3ccccc3)c2-c2ccc(OC)cc2)cc1`, for which, in the experiment on NCI/ADR-RES ovarian, the GI50 is > 100 µM and the TGI is > 100 µM. In the experiment on MCF7 breast, the GI50 is > 100 µM and the TGI is > 100 µM.

`NCCN.NCCN.O=C[O-].O=C[O-].[Co+3].[O-][Cl+3]([O-])([O-])[O-]`: the GI50 in the experiment on M19-MEL melanoma, with KM20L2 colon, in the experiment on SNB-78 CNS and in the experiment on LXFL 529 NSCLC was > 100 µM throughout. Also, the TGI in the experiment on M19-MEL melanoma, with KM20L2 colon, with SNB-78 CNS and in the experiment on LXFL 529 NSCLC was > 100 µM in each case.

`COc1cc(Nc2ncc(F)c(Nc3ccc4c(n3)NC(=O)C(C)(C)O4)n2)cc(OC)c1OC`: in the experiment on NCI/ADR-RES ovarian, the GI50 is > 10 µM and the TGI was > 10 µM. In addition, in the experiment with MCF7 breast, the GI50 is 3.93 µM and the TGI is > 10 µM.

Regarding `COC1=CC23CCCN2CCc2cc4c(cc2C3C1O)OCO4` (stereo not drawn), the TGI in the experiment with NCI/ADR-RES ovarian and in the experiment with MCF7 breast was > 100 µM each time.

For the molecule `N#CC(C#N)N=Nc1ccc(Br)cc1`, in the experiment on NCI/ADR-RES ovarian, the GI50 is 4.73 µM and the TGI was > 100 µM. Further, in the experiment on MCF7 breast, the GI50 is 2.74 µM and the TGI is > 51.7 µM.

`CN(CC#N)C1CCCC[C@H]1O` (stereo partly drawn): the TGI in the experiment on XF 498 CNS, in the experiment on KM20L2 colon, in the experiment with SNB-78 CNS and with LXFL 529 NSCLC was > 100 µM throughout.

As to `CCCCCCCCCCCCCCCC[N+](C)(CCO)Cc1cnc[nH]1` (stereo not drawn), in the experiment with NCI/ADR-RES ovarian, the GI50 was 14.7 µM and the TGI was 42.4 µM. Moreover, in the experiment on MCF7 breast, the GI50 is 1.87 µM and the TGI worked out at 13.9 µM.

As to `Nc1ncnc2c1c(-c1cccc(OCc3ccccc3)c1)cn2C1CC(CN2CCC2)C1` (stereo not drawn), in the experiment on NCI/ADR-RES ovarian, the GI50 was 6.47 µM and 8.96 µM; the TGI was 22.6 µM and > 10 µM. Further, in the experiment with MCF7 breast, the GI50 is 0.092 µM and 0.369 µM; the TGI is 3.74 µM and 5.55 µM.

Regarding `COC(=O)c1c(O)c([N+](=O)[O-])cc2c1c1c(n2Cc2ccccc2)C(=O)c2ccccc2C1=O`, in the experiment on NCI/ADR-RES ovarian, the GI50 was 21.1 µM and the TGI was 68.5 µM. Further, in the experiment with MCF7 breast, the GI50 is 5.86 µM and the TGI turned out to be 46.1 µM.

Take `CN1C(=O)[C@@H](NC(=O)[C@H](CCC(F)(F)F)[C@H](CCC(F)(F)F)C(N)=O)N=C(c2ccccc2)c2ccccc21`: in the experiment with NCI/ADR-RES ovarian, the GI50 is > 100 µM and the TGI is > 100 µM. For the same molecule, in the experiment with MCF7 breast, the GI50 was 33.4 µM and the TGI is > 100 µM.

With `C=C1c2[nH]c3ccccc3c2C2C(CC)C1CCN2C` (stereo not drawn), the TGI in the experiment on NCI/ADR-RES ovarian, in the experiment on MCF7 breast and in the experiment with MDA-N was > 100 µM each time.
